Laboratory results published in patent US7888464B2, “Hepatitis C virus inhibitors” (Bristol-Myers Squibb Company, priority 2006, dated 2011).

How the values were obtained:
Assay type in all cases: biochemical
[1] = biological target: T1, HCV NS3/4A protease complex, H77 strain (1a genotype) (Hepatitis C virus genotype 1a, UniProt P27958, C1454S/C1711G); assay: FRET peptide assay to monitor HCV NS3/4A proteolytic activity (H77 strain); details: read-out: IC50 against NS3/4A H77 strain
T1 construct: DNA encoding the recombinant HCV NS3/4A protease complex (amino acids 1027 to 1711) for these strains; made in house; host or cells: Escherichia coli BL21 (DE3), pET21b
T1 sequence (P27958 1027-1711 C1454S/C1711G, one chain of several): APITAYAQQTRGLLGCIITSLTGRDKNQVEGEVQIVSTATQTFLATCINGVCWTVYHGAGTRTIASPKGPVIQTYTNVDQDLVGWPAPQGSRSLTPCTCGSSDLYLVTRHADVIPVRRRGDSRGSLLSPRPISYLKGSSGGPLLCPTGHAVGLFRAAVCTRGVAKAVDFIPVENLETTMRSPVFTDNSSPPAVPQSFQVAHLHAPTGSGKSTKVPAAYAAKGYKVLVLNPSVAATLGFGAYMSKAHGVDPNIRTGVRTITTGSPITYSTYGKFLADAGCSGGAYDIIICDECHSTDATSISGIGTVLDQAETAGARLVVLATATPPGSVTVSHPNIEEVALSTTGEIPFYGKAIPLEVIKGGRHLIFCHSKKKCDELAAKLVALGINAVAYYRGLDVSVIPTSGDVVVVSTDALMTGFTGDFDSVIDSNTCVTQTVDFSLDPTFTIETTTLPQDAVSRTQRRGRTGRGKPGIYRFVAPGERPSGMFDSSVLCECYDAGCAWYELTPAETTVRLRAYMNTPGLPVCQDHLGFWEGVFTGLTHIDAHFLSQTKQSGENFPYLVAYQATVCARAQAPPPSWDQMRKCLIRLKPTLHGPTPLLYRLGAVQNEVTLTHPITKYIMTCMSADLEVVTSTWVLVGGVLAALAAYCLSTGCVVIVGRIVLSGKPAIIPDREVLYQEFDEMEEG
Description: (§1) HCV NS3 protease complexes, derived from the BMS strain, H77 strain or J4L6S strain, were generated, as described below. These purified recombinant proteins were generated for use in a homogeneous assay (see below) to provide an indication of how effective compounds of the present disclosure would be in inhibiting HCV NS3 proteolytic activity.
(§2) Serum from an HCV-infected patient was obtained from Dr. T. Wright, San Francisco Hospital. An engineered full-length cDNA (compliment deoxyribonucleic acid) template of the HCV genome (BMS strain) was constructed from DNA fragments obtained by reverse transcription-PCR(RT-PCR) of serum RNA (ribonucleic acid) and using primers selected on the basis of homology between other genotype la strains. From the determination of the entire genome sequence, a genotype la was assigned to the HCV isolate according to the classification of Simmonds et al. (See P Simmonds, K A Rose, S Graham, S W Chan, F McOmish, B C Dow, E A Follett, P L Yap and H Marsden, J. Clin. Microbiol., 31(6), 1493-1503 (1993)). […]

[2] = biological target: T2, human neutrophil elastase (HNE) (Homo sapiens, UniProt P08246); assay: Specificity assay, neutrophil elastase; details: read-out: HLE activity in the specificity assays
T2 construct: purchased Sigma, EMDbiosciences
T2 sequence (P08246 30-267): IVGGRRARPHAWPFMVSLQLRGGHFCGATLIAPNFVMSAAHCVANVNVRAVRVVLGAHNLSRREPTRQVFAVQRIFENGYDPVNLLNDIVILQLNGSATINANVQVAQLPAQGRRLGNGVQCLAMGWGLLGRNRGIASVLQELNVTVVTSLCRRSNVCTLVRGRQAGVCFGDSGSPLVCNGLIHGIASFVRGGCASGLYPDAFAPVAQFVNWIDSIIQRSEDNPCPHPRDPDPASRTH
Description: The specificities of compounds of the present disclosure were determined against a variety of serine proteases: human neutrophil elastase (HNE), porcine pancreatic elastase (PPE) and human pancreatic chymotrypsin and one cysteine protease: human liver cathepsin B. In all cases a 96-well plate format protocol using a fluorometric Amino-Methyl-Coumarin (AMC) substrate specific for each enzyme was used as described previously (PCT Patent Application No. WO 00/09543) with some modifications to the serine protease assays. All enzymes were purchased from Sigma, EMDbiosciences while the substrates were from Bachem, Sigma and EMDbiosciences.
Compound concentrations varied from 100 to 0.4 μM depending on their potency. The enzyme assays were each initiated by addition of substrate to enzyme-inhibitor pre-incubated for 10 min at room temperature and hydrolysis to 15% conversion as measured on cytofluor.
50 mM Tris-HCl, pH 8.0, 50 mM NaCl, 0.1 mM EDTA, 3% DMSO, 0.02% Tween-20, 5 μM succ-AAPV-AMC and 20 nM HNE or 8 nM PPE;
The percentage of inhibition was calculated using the formula: [1−((UVinh−UVblank)/(UVctl−UVblank))]×100
A non-linear curve fit was applied to the inhibition-concentration data, and the 50% effective concentration (IC50) was calculated by the use of Excel XLfit software.

[3] = biological target: T3, HCV NS3/4A protease complex, J4L6S strain (1b genotype) (Hepatitis C virus genotype 1b, UniProt O92972, C1454S/C1711G); assay: FRET peptide assay to monitor HCV NS3/4A proteolytic activity (J4L6S strain); details: read-out: IC50 against NS3/4A J4L6S strain
T3 construct: DNA encoding the recombinant HCV NS3/4A protease complex (amino acids 1027 to 1711) for these strains; made in house; host or cells: Escherichia coli BL21 (DE3), pET21b
T3 sequence (O92972 1027-1711 C1454S/C1711G, one chain of several): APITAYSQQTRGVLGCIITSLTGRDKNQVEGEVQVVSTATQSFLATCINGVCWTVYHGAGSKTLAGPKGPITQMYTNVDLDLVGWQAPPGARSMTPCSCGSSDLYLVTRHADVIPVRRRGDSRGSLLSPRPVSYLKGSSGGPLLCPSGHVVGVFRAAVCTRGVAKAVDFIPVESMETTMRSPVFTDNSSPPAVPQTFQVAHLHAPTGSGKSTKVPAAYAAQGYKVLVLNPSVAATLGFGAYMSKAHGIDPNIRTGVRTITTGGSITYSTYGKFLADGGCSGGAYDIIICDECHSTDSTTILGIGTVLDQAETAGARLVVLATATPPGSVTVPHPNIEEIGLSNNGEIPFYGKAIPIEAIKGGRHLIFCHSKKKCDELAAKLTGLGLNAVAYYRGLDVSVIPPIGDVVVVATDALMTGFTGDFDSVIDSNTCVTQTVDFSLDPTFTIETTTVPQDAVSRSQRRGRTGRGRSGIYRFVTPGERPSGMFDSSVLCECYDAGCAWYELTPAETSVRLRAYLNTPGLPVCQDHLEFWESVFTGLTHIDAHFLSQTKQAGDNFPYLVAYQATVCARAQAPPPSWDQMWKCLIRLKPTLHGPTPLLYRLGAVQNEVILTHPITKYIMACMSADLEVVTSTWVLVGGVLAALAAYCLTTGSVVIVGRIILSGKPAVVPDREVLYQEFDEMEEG
Description: as §1, §2

C=C[C@@H]1C[C@]1(NC(=O)[C@@H]1C[C@@](O)(c2ccc(-c3ccccc3)cc2)CN1C(=O)[C@@H](NC(=O)OC(C)(C)C)C(C)(C)C)C(=O)NS(=O)(=O)C1CC1 [Compound 3] was tested, and the IC50 [1] was 1.6 nM, the IC50 [2] was 82000 nM and the IC50 [3] was 1.1 nM.
